Source: paper doi:10.1101/2022.04.02.486822v1 (biorxiv, 2022)

Biological target: T1, EcGhrA (Escherichia coli, UniProt P75913)
T1 sequence (P75913 1-312): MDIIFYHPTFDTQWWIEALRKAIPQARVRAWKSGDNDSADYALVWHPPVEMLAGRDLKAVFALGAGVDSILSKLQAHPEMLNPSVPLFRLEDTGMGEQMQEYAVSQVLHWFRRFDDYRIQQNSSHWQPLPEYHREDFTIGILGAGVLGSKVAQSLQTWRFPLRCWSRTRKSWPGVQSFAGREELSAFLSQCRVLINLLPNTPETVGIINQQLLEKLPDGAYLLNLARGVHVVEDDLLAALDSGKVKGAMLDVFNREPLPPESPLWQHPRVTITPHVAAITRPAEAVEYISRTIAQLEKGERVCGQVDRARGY
Experiment: NADPH oxidation at […] nm, substrate inhibition fit
Type: biochemical
Conditions: 200 µM NADPH, 50 mM HEPES, pH 7.5, 22 °C

Structure (SMILES): O=CC(=O)O [compound 6, glyoxylate]
- KI: 1.5 ± 1.1 mM

Structure (SMILES): O=C(O)CC(=O)C(=O)O [compound 7, oxaloacetate]
- KI: 52 ± 15 mM
